Results as given in patent publication US9795607B2, “Substituted pyrrolopyrimidine compounds, compositions thereof, and methods of treatment therewith” (Signal Pharmaceutical, LLC, priority 2013, dated 2017).

Tested on: Triple negative breast cancer cell line CAL51
Assay: Cell Titer Glo proliferation assay, CAL51
Format: cell-based
Settings: Homo sapiens, CAL-51; CAL51 cell proliferation, Cell Titer Glo; read-out: Act. Level
Procedure: Cell Titer Glo Proliferation Assay.
Triple negative breast cancer cell line CAL51 was purchased from DSMZ. […] Allcell lines were maintained in growth media consisting of 90% high glucose Dulbecco's Modified Eagle Medium or RPMI1640 (Invitrogen), 10% fetal bovine serum (Hyclone), and 2 mM L-glutamine (Invitrogen). […] After overnight culture, compound stock (30 mM) was diluted serially in DMSO, further diluted in growth media, and was added to each well as a 10× concentrated solution in a volume of 11 μL, mixed, and allowed to incubate with cells. The compound vehicle (DMSO) was maintained at a final concentration of 0.2% in all wells. After 72 h, 100 μL of Cell Titer Glo solution (Promega) was added to each well of the 96-well plate. The plate was placed on a shaker for 2 minutes. After 10 minutes incubation, the luminescence signal was detected with Envision microplate reader (Perkin Elmer).

Compound | IC50 [nM]
CNC(=O)c1ccc(-c2c[nH]c3nc(Nc4cn(C)nc4C)nc(OC4CCC4)c23)cc1 [Example 340, 4-(4-cyclobutoxy-2-(1,3-dimethyl-1H-pyrazol-4-ylamino)-7H-pyrrolo[2,3-d]pyrimidin-5-yl)-N-methylbenzamide] | < 100
CNC(=O)c1ccc(-c2c[nH]c3nc(Nc4ccc(C(=O)NC5COC5)cc4OC)nc(OC4CC(C#N)C4)c23)cc1 (stereo not drawn) [Example 341, 4-(4-(3-cyanocyclobutoxy)-5-(4-(methylcarbamoyl)phenyl)-7H-pyrrolo[2,3-d]pyrimidin-2-ylamino)-3-methoxy-N-(oxetan-3-yl)benzamide] | < 100
COc1cc(C(=O)NC2COC2)ccc1Nc1nc(O[C@H]2CCOC2)c2c(-c3ccc4nc(C)oc4c3)c[nH]c2n1 [Example 343, (S)-3-methoxy-4-(5-(2-methylbenzo[d]oxazol-6-yl)-4-(tetrahydrofuran-3-yloxy)-7H-pyrrolo[2,3-d]pyrimidin-2-ylamino)-N-(oxetan-3-yl)benzamide] | < 100
CNC(=O)c1ccc(-c2c[nH]c3nc(Nc4ccc(C(=O)NC5COC5)cc4OC)nc(OC4CC4)c23)cc1 [Example 344, 4-(4-cyclopropoxy-5-(4-(methylcarbamoyl)phenyl)-7H-pyrrolo[2,3-d]pyrimidin-2-ylamino)-3-methoxy-N-(oxetan-3-yl)benzamide] | 100 to 400
CNC(=O)c1ccc(-c2c[nH]c3nc(Nc4ccc(C(=O)NC5COC5)cc4OC)nc(OC4CC(F)(F)C4)c23)cc1 [Example 345, 4-(4-(3,3-difluorocyclobutoxy)-5-(4-(methylcarbamoyl)phenyl)-7H-pyrrolo[2,3-d]pyrimidin-2-ylamino)-3-methoxy-N-(oxetan-3-yl)benzamide] | < 100
COc1cc(C(=O)N2C[C@@H]2CO)ccc1Nc1nc(OC2CCCC2)c2c(-c3ccc4nc(C)oc4c3)c[nH]c2n1 [Example 346, (R)-(4-(4-(cyclopentyloxy)-5-(2-methylbenzo[d]oxazol-6-yl)-7H-pyrrolo[2,3-d]pyrimidin-2-ylamino)-3-methoxyphenyl)(2-(hydroxymethyl)aziridin-1-yl)methanone] | 100 to 400
COc1cc(C(=O)NC2COC2)ccc1Nc1nc(OC)c2c(-c3ccncc3)c[nH]c2n1 [Example 347, 3-methoxy-4-(4-methoxy-5-(pyridin-4-yl)-7H-pyrrolo[2,3-d]pyrimidin-2-ylamino)-N-(oxetan-3-yl)benzamide] | 100 to 400
CNC(=O)c1ccc(-c2c[nH]c3nc(Nc4ccc(C(=O)NC5CN(C)C5)cc4OC)nc(OC4CCC4)c23)cc1 [Example 348, 4-(4-cyclobutoxy-5-(4-(methylcarbamoyl)phenyl)-7H-pyrrolo[2,3-d]pyrimidin-2-ylamino)-3-methoxy-N-(1-methylazetidin-3-yl)benzamide] | 100 to 400
CNC(=O)c1ccc(-c2c[nH]c3nc(Nc4ccc(C(=O)NC5CN(C)C5)cc4OC)nc(OC4CCC(C)(O)CC4)c23)cc1 (stereo not drawn) [Example 349, 4-(4-((1s,4s)-4-hydroxy-4-methylcyclohexyloxy)-5-(4-(methylcarbamoyl)phenyl)-7H-pyrrolo[2,3-d]pyrimidin-2-ylamino)-3-methoxy-N-(1-methylazetidin-3-yl)benzamide] | 100 to 400
COc1cc(C(=O)N2C[C@H]2CO)ccc1Nc1nc(OC2CCCC2)c2c(-c3ccc4nc(C)oc4c3)c[nH]c2n1 [Example 350, (S)-(4-(4-(cyclopentyloxy)-5-(2-methylbenzo[d]oxazol-6-yl)-7H-pyrrolo[2,3-d]pyrimidin-2-ylamino)-3-methoxyphenyl)(2-(hydroxymethyl)aziridin-1-yl)methanone] | 100 to 400
Cc1nc2ccc(-c3c[nH]c4nc(Nc5cnn(C(C)C)c5Cl)nc(OC5CCCC5)c34)cc2o1 [Example 351, N-(5-chloro-1-isopropyl-1H-pyrazol-4-yl)-4-(cyclopentyloxy)-5-(2-methylbenzo[d]oxazol-6-yl)-7H-pyrrolo[2,3-d]pyrimidin-2-amine] | 100 to 400
CNC(=O)c1ccc(-c2c[nH]c3nc(Nc4ccc(C(=O)NC5COC5)cc4OC)nc(OC4CCC4)c23)cn1 [Example 352, 5-(4-cyclobutoxy-2-(2-methoxy-4-(oxetan-3-ylcarbamoyl)phenylamino)-7H-pyrrolo[2,3-d]pyrimidin-5-yl)-N-methylpicolinamide] | 1000 to 10000
CNC(=O)c1ccc(-c2c[nH]c3nc(Nc4ccc(C(=O)NC5COC5)cc4OC)nc(OC4CCC4)c23)cc1F [Example 353, 4-(4-cyclobutoxy-2-(2-methoxy-4-(oxetan-3-ylcartbamoyl)phenylamino)-7H-pyrrolo[2,3-d]pyrimidin-5-yl)-2-fluoro-N-methylbenzamide] | 1000 to 10000
COc1cc(C(=O)NC2CN(C)C2)ccc1Nc1nc(OC(C)(C)C)c2c(-c3ccc4nc(C)oc4c3)c[nH]c2n1 [Example 354, 4-(4-tert-butoxy-5-(2-methylbenzo[d]oxazol-6-yl)-7H-pyrrolo[2,3-d]pyrimidin-2-ylamino)-3-methoxy-N-(1-methylazetidin-3-yl)benzamide] | < 100
CNC(=O)c1ccc(-c2c[nH]c3nc(Nc4ccc(C(=O)NC5CN(C)C5)cc4OC)nc(OC(C)(C)C)c23)cc1 [Example 355, 4-(4-tert-butoxy-5-(4-(methylcarbamoyl)phenyl)-7H-pyrrolo[2,3-d]pyrimidin-2-ylamino)-3-methoxy-N-(1-methylazetidin-3-yl)benzamide] | < 100
COc1cc(C(=O)NC2CN(C)C2)ccc1Nc1nc(OC(C)C)c2c(-c3ccc4nc(C)oc4c3)c[nH]c2n1 [Example 356, 4-(4-isopropoxy-5-(2-methylbenzo[d]oxazol-6-yl)-7H-pyrrolo[2,3-d]pyrimidin-2-ylamino)-3-methoxy-N-(1-methylazetidin-3-yl)benzamide] | < 100
CNC(=O)c1ccc(-c2c[nH]c3nc(Nc4ccc(C(=O)NC5CN(C)C5)cc4OC)nc(OC(C)C)c23)cc1 [Example 357, 4-(4-isopropoxy-5-(4-(methylcarbamoyl)phenyl)-7H-pyrrolo[2,3-d]pyrimidin-2-ylamino)-3-methoxy-N-(1-methylazetidin-3-yl)benzamide] | < 100
COc1cc(C(=O)NC2CN(C)C2)ccc1Nc1nc(OC2CCC(C)(O)CC2)c2c(-c3ccc4nc(C)oc4c3)c[nH]c2n1 (stereo not drawn) [Example 358, 4-(4-((1s,4s)-4-hydroxy-4-methylcyclohexyloxy)-5-(2-methylbenzo[d]oxazol-6-yl)-7H-pyrrolo[2,3-d]pyrimidin-2-ylamino)-3-methoxy-N-(1-methylazetidin-3-yl)benzamide] | 100 to 400
CNC(=O)c1ccc(-c2c[nH]c3nc(Nc4ccc(C(=O)NC5COC5)cc4OC)nc(OC4COC4)c23)cc1 [Example 359, 3-methoxy-4-(5-(4-(methylcarbamoyl)phenyl)-4-(oxetan-3-yloxy)-7H-pyrrolo[2,3-d]pyrimidin-2-ylamino)-N-(oxetan-3-yl)benzamide] | 100 to 400
COc1cc(C(=O)NC2COC2)ccc1Nc1nc(OC2CCC2)c2c(-c3ccc(-c4ncc[nH]4)cc3)c[nH]c2n1 [Example 360, 4-(5-(4-(1H-imidazol-2-yl)phenyl)-4-cyclobutoxy-7H-pyrrolo[2,3-d]pyrimidin-2-ylamino)-3-methoxy-N-(oxetan-3-yl)benzamide] | < 100
COc1cc(C(=O)NC2CN(C)C2)ccc1Nc1nc(OC2CCCC2)c2c(-c3ccc(-c4ncc[nH]4)cc3)c[nH]c2n1 [Example 361, 4-(5-(4-(1H-imidazol-2-yl)phenyl)-4-(cyclopentyloxy)-7H-pyrrolo[2,3-d]pyrimidin-2-ylamino)-3-methoxy-N-(1-methylazetidin-3-yl)benzamide] | 100 to 400
COc1cc(C(=O)NC2COC2)ccc1Nc1nc(OC(C)C)c2c(-c3ccc4nc(C)oc4c3)c[nH]c2n1 [Example 362, 4-(4-isopropoxy-5-(2-methylbenzo[d]oxazol-6-yl)-7H-pyrrolo[2,3-d]pyrimidin-2-ylamino)-3-methoxy-N-(oxetan-3-yl)benzamide] | 100 to 400
COc1cc(C(=O)NC2CN(C)C2)ccc1Nc1nc(OC2CC2)c2c(-c3ccc4nc(C)oc4c3)c[nH]c2n1 [Example 363, 4-(4-cyclopropoxy-5-(2-methylbenzo[d]oxazol-6-yl)-7H-pyrrolo[2,3-d]pyrimidin-2-ylamino)-3-methoxy-N-(1-methylazetidin-3-yl)benzamide] | < 100
CNC(=O)c1ccc(-c2c[nH]c3nc(Nc4ccc(C(=O)NC5CN(C)C5)cc4OC)nc(OC4CC4)c23)cc1 [Example 364, 4-(4-cyclopropoxy-5-(4-(methylcarbamoyl)phenyl)-7H-pyrrolo[2,3-d]pyrimidin-2-ylamino)-3-methoxy-N-(1-methylazetidin-3-yl)benzamide] | 100 to 400
COCCOc1nc(Nc2ccc(C(=O)NC3COC3)cc2OC)nc2[nH]cc(-c3ccc4nc(C)oc4c3)c12 [Example 365, 3-methoxy-4-(4-(2-methoxyethoxy)-5-(2-methylbenzo[d]oxazol-6-yl)-7H-pyrrolo[2,3-d]pyrimidin-2-ylamino)-N-(oxetan-3-yl)benzamide] | < 100
CNC(=O)c1ccc(-c2c[nH]c3nc(Nc4ccc(C(=O)NC5CN(C)C5)cc4OC)nc(OC4CCOCC4)c23)cc1 [Example 366, 3-methoxy-N-(1-methylazetidin-3-yl)-4-(5-(4-(methylcarbamoyl)phenyl)-4-(tetrahydro-2H-pyran-4-yloxy)-7H-pyrrolo[2,3-d]pyrimidin-2-ylamino)benzamide] | 100 to 400
COc1cc(C(=O)NC2CN(C)C2)ccc1Nc1nc(OC2CCOCC2)c2c(-c3ccc4nc(C)oc4c3)c[nH]c2n1 [Example 367, 3-methoxy-N-(1-methylazetidin-3-yl)4-(5-(2-methylbenzo[d]oxazol-6-yl)-4-(tetrahydro-2H-pyran-4-yloxy)-7H-pyrrolo[2,3-d]pyrimidin-2-ylamino)benzamide] | 100 to 400
